Experimental data reported in patent US8063029B2, “Pharmaceutical composition” (FCB I LLC, priority 2002, dated 2011).

What was measured:
[1] = in vivo; cited from earlier work
[2] = Solubility / miscibility in carrier fluids; assay type: physicochemical
Text: In such situations, when the first fluid evaporates, the compound of interest is left in a supersaturated environment in which it is favorable for the compound to pass into a less saturated environment, in this case through the membrane. […] Accordingly, if increased flux for oxacyclohexadecan-2-one is desired, a carrier may include ethanol and propylene glycol and/or water. […] Accordingly, if increased flux for testosterone is desired, a carrier may include ethanol and water or ethanol and propylene glycol. In addition, water may be used to prevent “reverse-flux”, or the flow of water from the membrane into the matrix of the composition.

Question: Which “typical half-life in the blood serum” value [1] does the source give for `C[C@]12CC[C@H]3[C@@H](CCC4=CC(=O)CC[C@@]43C)[C@@H]1CC[C@@H]2O` [testosterone, 17β-hydroxyandrost-4-en-3-one] here?
Answer: The value was 10 to 100 min.

Question: And the solubility / miscibility ([2]; in ethanol)?
Answer: The solubility / miscibility was “soluble”.

Question: What about the solubility / miscibility ([2]; in propylene glycol) of the same compound?
Answer: The solubility / miscibility was “partially soluble”.

Question: And the solubility / miscibility ([2]; in water)?
Answer: The solubility / miscibility was “not soluble”.
